Here are results for 7 compounds from ChEMBL document CHEMBL6109040, “Tyrosine kinase 2 inhibitors: Synthesis and applications in the treatment of autoimmune diseases” (Eur J Med Chem, 2025).

Series [1] concerns the target T1, Tyrosine-protein kinase JAK1 (Homo sapiens, UniProt P23458). Nature of the series: Binding affinity to recombinant human JAK1 JH2 (553 to 856 residues) pseudokinase domain assessed as inhibition constant by fluorescence polarization assay.
Series [2] deals with T1, Tyrosine-protein kinase JAK1. Briefly: Inhibition of JAK1 (unknown origin).
Series [3] can be described thus: Inhibition of IL-12 induced IFNgamma production in human NK92 cells. The series is classed as functional, cell-based, NK-92.
The target of series [4] is T2, Non-receptor tyrosine-protein kinase TYK2 (Homo sapiens, UniProt P29597). Nature of the series: Binding affinity to recombinant human TYK2 JH2 (564 to 876 residues) pseudokinase domain assessed as dissociation constant by fluorescence polarization assay. For orientation: Polarisation of emitted light reports the rotation of a fluorescent probe.
T2 sequence (P29597 whole entry, the tested form may be a part): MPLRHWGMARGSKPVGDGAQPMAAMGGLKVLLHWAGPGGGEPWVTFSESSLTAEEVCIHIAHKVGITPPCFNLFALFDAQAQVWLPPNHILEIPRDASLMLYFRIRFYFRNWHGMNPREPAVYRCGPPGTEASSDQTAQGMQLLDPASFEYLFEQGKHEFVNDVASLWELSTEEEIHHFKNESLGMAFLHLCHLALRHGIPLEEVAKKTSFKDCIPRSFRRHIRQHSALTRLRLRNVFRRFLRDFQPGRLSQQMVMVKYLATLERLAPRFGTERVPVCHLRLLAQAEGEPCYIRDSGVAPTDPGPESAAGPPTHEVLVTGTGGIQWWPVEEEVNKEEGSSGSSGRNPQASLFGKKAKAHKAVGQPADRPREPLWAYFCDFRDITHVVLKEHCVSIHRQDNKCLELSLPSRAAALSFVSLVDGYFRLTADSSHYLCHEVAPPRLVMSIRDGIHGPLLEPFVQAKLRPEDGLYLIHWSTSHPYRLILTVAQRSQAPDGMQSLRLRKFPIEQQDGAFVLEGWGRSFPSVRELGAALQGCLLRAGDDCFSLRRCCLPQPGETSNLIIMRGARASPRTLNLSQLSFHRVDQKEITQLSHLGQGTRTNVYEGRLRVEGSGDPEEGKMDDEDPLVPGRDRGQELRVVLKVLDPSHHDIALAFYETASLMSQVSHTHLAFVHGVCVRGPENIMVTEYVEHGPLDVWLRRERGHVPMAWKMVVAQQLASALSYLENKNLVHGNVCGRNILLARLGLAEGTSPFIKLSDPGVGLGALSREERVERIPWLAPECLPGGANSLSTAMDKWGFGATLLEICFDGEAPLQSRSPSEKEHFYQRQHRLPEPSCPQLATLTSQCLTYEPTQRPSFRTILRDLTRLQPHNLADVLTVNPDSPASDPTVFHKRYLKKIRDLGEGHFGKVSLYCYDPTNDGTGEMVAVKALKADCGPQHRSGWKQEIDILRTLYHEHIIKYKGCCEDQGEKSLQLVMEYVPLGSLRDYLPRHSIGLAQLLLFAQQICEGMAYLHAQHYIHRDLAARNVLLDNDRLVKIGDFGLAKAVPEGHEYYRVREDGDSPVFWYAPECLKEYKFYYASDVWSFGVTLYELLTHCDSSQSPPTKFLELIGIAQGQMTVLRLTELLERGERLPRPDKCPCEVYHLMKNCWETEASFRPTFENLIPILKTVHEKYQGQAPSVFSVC
The target in series [5] is T2, Non-receptor tyrosine-protein kinase TYK2. Briefly: Binding affinity to TYK2 JH2 (556 to 888 residues) pseudokinase domain (unknown origin) assessed as dissociation constant by KINOMEscan assay.
Series [6] can be described thus: Inhibition of IFNalpha-induced STAT5 phosphorylation in human PBMC cells. Type of series: cell-based.
The target in series [7] is Tyrosine-protein kinase JAK2 (Homo sapiens, UniProt O60674). Nature of the series: Binding affinity to JAK2 […] pseudokinase domain (unknown origin) assessed as dissociation constant by TR-FRET assay.
Tyrosine-protein kinase JAK2, sequence (O60674 whole entry, the tested form may be a part): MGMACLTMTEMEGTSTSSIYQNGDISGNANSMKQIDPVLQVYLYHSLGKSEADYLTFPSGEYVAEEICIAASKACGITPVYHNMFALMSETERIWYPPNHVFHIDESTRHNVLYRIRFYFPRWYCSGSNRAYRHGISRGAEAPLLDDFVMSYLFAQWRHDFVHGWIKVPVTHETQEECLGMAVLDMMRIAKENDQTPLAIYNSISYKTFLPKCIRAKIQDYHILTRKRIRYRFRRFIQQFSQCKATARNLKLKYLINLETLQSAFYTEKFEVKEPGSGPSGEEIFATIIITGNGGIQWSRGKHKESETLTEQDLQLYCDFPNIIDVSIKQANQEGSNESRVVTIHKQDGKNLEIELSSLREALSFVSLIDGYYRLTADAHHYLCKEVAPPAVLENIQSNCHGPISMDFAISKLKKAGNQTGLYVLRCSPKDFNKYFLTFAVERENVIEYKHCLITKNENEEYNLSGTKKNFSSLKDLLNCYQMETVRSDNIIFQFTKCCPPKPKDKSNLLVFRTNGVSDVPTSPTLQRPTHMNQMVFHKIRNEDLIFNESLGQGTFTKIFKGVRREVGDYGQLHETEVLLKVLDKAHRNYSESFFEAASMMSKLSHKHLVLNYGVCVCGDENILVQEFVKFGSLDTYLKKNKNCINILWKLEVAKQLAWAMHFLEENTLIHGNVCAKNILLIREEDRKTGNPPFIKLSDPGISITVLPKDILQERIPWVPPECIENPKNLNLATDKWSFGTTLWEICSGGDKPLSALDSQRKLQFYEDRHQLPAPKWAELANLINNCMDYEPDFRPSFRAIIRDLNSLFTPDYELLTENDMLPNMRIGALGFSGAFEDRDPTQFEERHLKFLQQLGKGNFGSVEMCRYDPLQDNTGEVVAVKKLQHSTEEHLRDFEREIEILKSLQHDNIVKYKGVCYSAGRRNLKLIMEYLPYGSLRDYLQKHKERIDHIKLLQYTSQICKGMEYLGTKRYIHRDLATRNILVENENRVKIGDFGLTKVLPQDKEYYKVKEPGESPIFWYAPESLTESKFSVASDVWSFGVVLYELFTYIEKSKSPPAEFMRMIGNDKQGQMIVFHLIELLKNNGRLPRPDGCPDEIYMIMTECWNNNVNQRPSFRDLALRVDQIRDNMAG
Series [8] deals with T2, Non-receptor tyrosine-protein kinase TYK2. Briefly: Inhibition of TYK2 JH2 pseudokinase domain (unknown origin) by TR-FRET assay. A general note: TR-FRET usually uses a lanthanide donor and a delayed reading to cut background.
A short description of series [9]: AUC in BALB/c mouse at 5 mg/kg, po by LC-MS/MS analysis. The series is classed as ADME, organism-based. The note with it: in vivo.
Series [10] in a line: Cmax in BALB/c mouse at 5 mg/kg, po by LC-MS/MS analysis. Type of series: ADME, organism-based. The conditions noted are these: in vivo.

Each structure is given as a SMILES string. A value given as a limit tells only on which side of the number the result lay.

T1 sequence (P23458 whole entry, the tested form may be a part): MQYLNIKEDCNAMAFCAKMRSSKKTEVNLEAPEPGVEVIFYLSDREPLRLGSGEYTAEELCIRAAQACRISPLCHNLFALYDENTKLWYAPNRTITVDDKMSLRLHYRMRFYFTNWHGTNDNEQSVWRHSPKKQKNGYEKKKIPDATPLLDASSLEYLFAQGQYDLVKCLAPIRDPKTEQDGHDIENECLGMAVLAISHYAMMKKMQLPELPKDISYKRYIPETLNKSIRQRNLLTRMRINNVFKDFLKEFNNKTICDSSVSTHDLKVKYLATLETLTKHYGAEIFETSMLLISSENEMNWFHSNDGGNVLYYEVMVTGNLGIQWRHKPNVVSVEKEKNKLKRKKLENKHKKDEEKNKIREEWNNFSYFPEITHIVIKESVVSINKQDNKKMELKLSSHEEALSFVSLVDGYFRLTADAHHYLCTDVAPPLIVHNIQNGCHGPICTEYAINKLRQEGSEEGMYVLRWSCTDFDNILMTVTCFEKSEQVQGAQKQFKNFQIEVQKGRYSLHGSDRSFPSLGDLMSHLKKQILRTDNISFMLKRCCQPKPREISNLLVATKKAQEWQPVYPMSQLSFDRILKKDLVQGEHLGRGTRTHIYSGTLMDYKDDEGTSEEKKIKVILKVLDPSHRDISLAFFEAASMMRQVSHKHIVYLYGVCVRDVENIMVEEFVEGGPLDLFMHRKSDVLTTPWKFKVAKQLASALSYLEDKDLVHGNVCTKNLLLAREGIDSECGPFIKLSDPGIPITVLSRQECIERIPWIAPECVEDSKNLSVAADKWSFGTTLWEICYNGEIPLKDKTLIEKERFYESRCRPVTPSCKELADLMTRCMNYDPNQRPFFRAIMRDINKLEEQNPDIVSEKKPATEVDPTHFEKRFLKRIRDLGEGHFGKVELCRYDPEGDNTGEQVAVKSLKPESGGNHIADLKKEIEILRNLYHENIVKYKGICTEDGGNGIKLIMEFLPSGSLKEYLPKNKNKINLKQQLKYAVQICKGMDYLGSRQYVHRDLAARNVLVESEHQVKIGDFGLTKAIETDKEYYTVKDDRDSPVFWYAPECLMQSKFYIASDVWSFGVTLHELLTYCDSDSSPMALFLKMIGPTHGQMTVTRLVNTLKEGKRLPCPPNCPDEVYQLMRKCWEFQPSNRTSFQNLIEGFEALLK

Turning to `CO[C@@]1(c2cc(C)cc(-n3cc(C4CC4)c4cnc(NC(C)=O)cc43)n2)CCOC1`, the Ki (as a rule, the dissociation constant of the complex between target and ligand, obtained from inhibition or displacement) in series [1] was more than 10 µM.

In the case of `CNC(=O)c1nnc(NC(=O)N2CCC2)cc1Nc1cccc(-c2ncn(C)n2)c1OC`, half-maximal inhibition in series [2] (IC50) was put at 5.9 µM. This lies in the single-digit micromolar range. `NC(=O)c1nnc(-c2c(F)cccc2F)cc1Nc1ccc(N2CCOCC2)cn1`: in series [3], half-maximal inhibition (IC50) required 80 nM.

Turning to `CNc1cc2nn3c(cnc13)C(=O)N[C@H](C)COCc1ccc(OC)c(c1)N2`, the Kd (in general, the constant that tells how readily two partners part at equilibrium) in [4] worked out at 0.023 nM; in [5] it was 0.022 nM. Besides, the IC50 – broadly, the point on the concentration scale where inhibition reaches its midpoint – in series [6] worked out at 1.7 nM. Regarding `CC(=O)Nc1cc(Nc2cccc(S(C)(=O)=O)n2)c(-c2ccccn2)cn1`, in [3], half-maximal inhibition (IC50) required 0.243 nM. On to `CNC(=O)c1cnc2cc1Nc1cc(cc(-c3ccn(C)n3)c1OC)CCOCc1cccc(n1)N2`, for which the Kd in series [7] is more than 10 µM. The IC50 in [8] is less than 1 nM. On to `[2H]C([2H])([2H])N1Cc2nc(NC(=O)C3CC3)cc(Nc3cccc(-c4ncn(C)n4)c3OC)c2C1=O`, for which the AUC (commonly the area under the concentration-time curve, a measure of exposure) in [9] amounted to 3650 ng·h/mL. Further, the Cmax – broadly, the maximum level reached in the sampled fluid or tissue – in [10] stood at 1160 ng/mL.
